Where two headings read alike, the source gives them in different places. Square brackets hold non-standard residues; d marks the D form. Ends that are not written are not given here. Peptide text beside a SMILES is read from it. N(tridecyl)Gly = CCCCCCCCCCCCCNCC(=O)O; Nspe = C[C@H](NCC(=O)O)c1ccccc1; Nlys = NCCCCNCC(=O)O
Columns and labels:
[1] = system: C. auris CBS12373; experiment: Broth microdilution MIC; format: cell-based, Candida auris
[2] = system: E. coli 0011
In short: (§1)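 Growth inhibition was scored after 16–20 h shaking incubation (37°C, 120 rpm) of 5 × 10^5 CFU ml^−1 suspensions in Mueller–Hinton broth, cation-adjusted when antibiotics were tested.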

[3] = system: Enteroc. faecalis NCTC 13 379
In short: as §1

[4] = system: S. aureus 105
In short: as §1

[5] = system: S. aureus 04
In short: as §1

[6] = system: A. baumannii 006
In short: as §1

[7] = system: E. coli 0010
In short: as §1

[8] = system: A. baumannii 005
In short: as §1

[9] = system: A. baumannii ATCC 19 606
In short: as §1

[10] = system: En. cloacae 005
In short: as §1

[11] = system: En. cloacae 003
In short: as §1

[12] = system: P. aeruginosa 216
In short: as §1

[13] = system: P. aeruginosa AR-1270
In short: as §1

[14] = system: A. baumannii 007
In short: as §1

[15] = system: K. pneumoniae JIE2709
In short: as §1

[16] = system: A. baumannii 008
In short: as §1

[17] = system: E. coli 0015
In short: as §1

[18] = system: E. coli 005
In short: as §1

[19] = system: S. aureus 117
In short: as §1

[20] = system: horse red blood cells (RBCs); experiment: Haemolysis assay; format: cell-based
In short: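 Washed horse RBCs exposed to peptoids at 0.5–250 μg ml^−1 in PBS for 4 h at 37 °C; supernatant OD 540 nm read after centrifugation. Percent haemolysis normalized between PBS (0%) and water (100%) controls, in triplicate.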

[21] = CBS 12 373, RPMI 1640 with MOPS, 5 × 10^3 CFU ml^−1, ≥90% reduction (≥50% for fluconazole)
[22] = E. coli 0011, MHB (melimine/Mel4 with 0.2% BSA, 0.01% acetic acid), mean MIC
[23] = Enteroc. faecalis NCTC 13 379, MHB (melimine/Mel4 with 0.2% BSA, 0.01% acetic acid), mean MIC
[24] = S. aureus 105, MHB (melimine/Mel4 with 0.2% BSA, 0.01% acetic acid), mean MIC
[25] = S. aureus 004, MHB (melimine/Mel4 with 0.2% BSA, 0.01% acetic acid), mean MIC
[26] = A. baumannii 006, MHB (melimine/Mel4 with 0.2% BSA, 0.01% acetic acid), mean MIC
[27] = E. coli 0010, MHB (melimine/Mel4 with 0.2% BSA, 0.01% acetic acid), mean MIC
[28] = A. baumannii 005, MHB (melimine/Mel4 with 0.2% BSA, 0.01% acetic acid), mean MIC
[29] = A. baumannii ATCC 19 606, MHB (melimine/Mel4 with 0.2% BSA, 0.01% acetic acid), mean MIC
[30] = En. cloacae 005, MHB (melimine/Mel4 with 0.2% BSA, 0.01% acetic acid), mean MIC
[31] = En. cloacae 003, MHB (melimine/Mel4 with 0.2% BSA, 0.01% acetic acid), mean MIC
[32] = P. aeruginosa 216, MHB (melimine/Mel4 with 0.2% BSA, 0.01% acetic acid), mean MIC
[33] = P. aeruginosa AR-1270, MHB (melimine/Mel4 with 0.2% BSA, 0.01% acetic acid), mean MIC
[34] = A. baumannii 007, MHB (melimine/Mel4 with 0.2% BSA, 0.01% acetic acid), mean MIC
[35] = K. pneumoniae JIE2709, MHB (melimine/Mel4 with 0.2% BSA, 0.01% acetic acid), mean MIC
[36] = A. baumannii 008, MHB (melimine/Mel4 with 0.2% BSA, 0.01% acetic acid), mean MIC
[37] = E. coli 0015, MHB (melimine/Mel4 with 0.2% BSA, 0.01% acetic acid), mean MIC
[38] = E. coli 005, MHB (melimine/Mel4 with 0.2% BSA, 0.01% acetic acid), mean MIC
[39] = S. aureus 117, MHB (melimine/Mel4 with 0.2% BSA, 0.01% acetic acid), mean MIC
[40] = horse RBCs in PBS, 37°C, 4 h, OD 540 nm, triplicate, best fit curve
[41] = horse RBCs in PBS, 37°C, 4 h, value in brackets

Question: `CCCCCCCCCCCCCNCC(=O)N(CCCCN)CC(=O)N(CC(=O)N(CC(=O)N(CCCCN)CC(=O)N(CCCCN)CC(N)=O)[C@@H](C)c1ccccc1)[C@@H](C)c1ccccc1` [TM15] (H-[N(tridecyl)Gly][Nlys][Nspe][Nspe][Nlys][Nlys]-NH2) was tested. Which “MIC against C. auris” value [1, 21] did it give?
Answer: 3.9 µg/mL

Question: And the “MIC against C. auris” value ([1]; CBS12373)?
Answer: 4.0 µM

Question: What about the MIC of peptidomimetics [2]; 0011 of the same compound?
Answer: 64.9 µM

Question: What about the MIC of peptidomimetics [2, 22] of the same compound?
Answer: 62.5 µg/mL

Question: What about the MIC of peptidomimetics [3, 23] of the same compound?
Answer: 31.3 µg/mL

Question: What about the MIC of peptidomimetics ([3]; NCTC 13) of the same compound?
Answer: 32.4 µM

Question: And the MIC of peptidomimetics [4]; 105?
Answer: 8.1 µM

Question: What about the MIC of peptidomimetics [4, 24] of the same compound?
Answer: 7.8 µg/mL

Question: And the MIC of peptidomimetics [5]; 04?
Answer: 8.1 µM

Question: And the MIC of peptidomimetics [5, 25]?
Answer: 7.8 µg/mL

Question: And the MIC of peptidomimetics [6]; 006?
Answer: 64.9 µM

Question: And the MIC of peptidomimetics [6, 26]?
Answer: 62.5 µg/mL

Question: And the MIC of peptidomimetics [7]; 0010?
Answer: 64.9 µM

Question: And the MIC of peptidomimetics [7, 27]?
Answer: 62.5 µg/mL

Question: What about the MIC of peptidomimetics [8]; 005 of the same compound?
Answer: 64.9 µM

Question: What about the MIC of peptidomimetics [8, 28] of the same compound?
Answer: 62.5 µg/mL

Question: What about the MIC of peptidomimetics [9, 29] of the same compound?
Answer: 62.5 µg/mL

Question: And the MIC of peptidomimetics ([9]; ATCC 19)?
Answer: 64.9 µM

Question: And the MIC of peptidomimetics [10]?
Answer: 32.5 µM

Question: And the MIC of peptidomimetics [10, 30]?
Answer: 31.3 µg/mL

Question: And the MIC of peptidomimetics [11]?
Answer: 64.9 µM

Question: What about the MIC of peptidomimetics [11, 31] of the same compound?
Answer: 62.5 µg/mL

Question: And the MIC of peptidomimetics [12]; 216?
Answer: 16.2 µM

Question: And the MIC of peptidomimetics [12, 32]?
Answer: 15.6 µg/mL

Question: And the MIC of peptidomimetics ([13]; AR-1270)?
Answer: 32.5 µM

Question: What about the MIC of peptidomimetics [13, 33] of the same compound?
Answer: 31.3 µg/mL

Question: What about the MIC of peptidomimetics [14]; 007 of the same compound?
Answer: 64.9 µM

Question: And the MIC of peptidomimetics [14, 34]?
Answer: 62.5 µg/mL

Question: What about the MIC of peptidomimetics ([15]; JIE2709) of the same compound?
Answer: 129.8 µM

Question: What about the MIC of peptidomimetics [15, 35] of the same compound?
Answer: 125 µg/mL

Question: What about the MIC of peptidomimetics [16]; 008 of the same compound?
Answer: 32.5 µM

Question: What about the MIC of peptidomimetics [16, 36] of the same compound?
Answer: 31.3 µg/mL

Question: And the MIC of peptidomimetics [17]; 0015?
Answer: 16.2 µM

Question: What about the MIC of peptidomimetics [17, 37] of the same compound?
Answer: 15.6 µg/mL

Question: What about the MIC of peptidomimetics [18]; 005 of the same compound?
Answer: 64.9 µM

Question: And the MIC of peptidomimetics [18, 38]?
Answer: 62.5 µg/mL

Question: And the MIC of peptidomimetics [19]; 117?
Answer: 8.1 µM

Question: And the MIC of peptidomimetics [19, 39]?
Answer: 7.8 µg/mL

Question: And the “HD10 (10% haemolytic dose)” value [20]?
Answer: 24.5 µmol/L

Question: What about the “HD50 (50% haemolytic dose)” value [20] of the same compound?
Answer: 89.7 µmol/L

Question: What about the “HD10 (10% haemolytic dose)” value ([20]; red cells of horse, 4 h) of the same compound?
Answer: 23.6 µg/mL

Question: What about the “HD50 (50% haemolytic dose)” value ([20]; red cells of horse, 4 h) of the same compound?
Answer: 86.4 µg/mL

Question: For KNKRKRRRRRRGGRRRR [Mel4], which “MIC against C. auris” value [1, 21] is on record?
Answer: 3.9 µg/mL

Question: What about the MIC of peptidomimetics [2, 22] of the same compound?
Answer: 62.5 µg/mL

Question: What about the MIC of peptidomimetics [3, 23] of the same compound?
Answer: 500 µg/mL

Question: And the MIC of peptidomimetics [4, 24]?
Answer: 62.5 µg/mL

Question: And the MIC of peptidomimetics [5, 25]?
Answer: 62.5 µg/mL

Question: And the MIC of peptidomimetics [6, 26]?
Answer: 62.5 µg/mL

Question: And the MIC of peptidomimetics [7, 27]?
Answer: 250 µg/mL

Question: And the MIC of peptidomimetics [8, 28]?
Answer: 250 µg/mL

Question: And the MIC of peptidomimetics [9, 29]?
Answer: 125 µg/mL

Question: And the MIC of peptidomimetics [10, 30]?
Answer: 250 µg/mL

Question: What about the MIC of peptidomimetics [11, 31] of the same compound?
Answer: 250 µg/mL

Question: What about the MIC of peptidomimetics [12, 32] of the same compound?
Answer: 250 µg/mL

Question: What about the MIC of peptidomimetics [13, 33] of the same compound?
Answer: 500 µg/mL

Question: And the MIC of peptidomimetics [14, 34]?
Answer: 250 µg/mL

Question: And the MIC of peptidomimetics [15, 35]?
Answer: 62.5 µg/mL

Question: What about the MIC of peptidomimetics [16, 36] of the same compound?
Answer: 250 µg/mL

Question: What about the MIC of peptidomimetics [17, 37] of the same compound?
Answer: 62.5 µg/mL

Question: And the MIC of peptidomimetics [18, 38]?
Answer: 250 µg/mL

Question: And the MIC of peptidomimetics [19, 39]?
Answer: 62.5 µg/mL

Question: And the “HD10 (10% haemolytic dose)” value [20, 40]?
Answer: > 256 µg/mL

Question: And the “HD50 (50% haemolytic dose)” value [20, 40]?
Answer: > 256 µg/mL

Question: What about the “HD10 (10% haemolytic dose)” value [20, 41] of the same compound?
Answer: > 109 µmol/L

Question: What about the “HD50 (50% haemolytic dose)” value [20, 41] of the same compound?
Answer: > 109 µmol/L

Reference: PMC11879280, “Antimicrobial activity of peptoids against Metallo-β-lactamase-producing Klebsiella pneumoniae, Acinetobacter baumannii, Pseudomonas aeruginosa, and other WHO priority pathogens, including Candida auris” (Journal of Applied Microbiology, 2025)
